The assay relates to HIV in MT-4 cells. In words: HIV Proliferation Inhibitory Activity (MT-4 cells, 10% FCS). It is filed as cell-based, HIV (a culture supernatant of TALL-1/LAV-1). Conditions: Human immunodeficiency virus 1, MT4, 120 h, read-out: HIV proliferation inhibitory activity, 100% inhibition concentration. The procedure:
It is known that when MT-4 cells which are sustaining infectious cell lines of human T-cell Leukemia virus I type (HTLV-I) are infected with HIV, HIV proliferates rapidly and the MT-4 cells are killed in 5 to 6 days due to the cellular damage. Therefore, HIV proliferation inhibitory activity of a sample can be evaluated by examining the number of viable cells of the MT-4 cells infected with HIV.
MT-4 cells were infected with HIV (a culture supernatant of TALL-1/LAV-1) at 37° C. for one hour so that TCID50 (median tissue culture infectious dose)/cell might be 0.001, followed by washing with the medium. The infected MT-4 cells were then suspended at a concentration of 1×10^5 cell/ml in RPMI-1640 media (containing 10% of FCS (fetal calf serum)) containing samples of various concentrations, respectively. Each of the thus obtained cell suspension was introduced in a flat bottom culture plate in an amount of 200 μl/well and was incubated at 37° C. in the presence of 5% carbon dioxide for 5 days. After incubation, the number of viable cells in the cell suspension was counted by the Tripan-Blue Staining Method. The HIV proliferation inhibitory activity of a sample was evaluated in terms of the concentration of the sample which suppresses by 100% the infectiousness and the cell modification activity of HIV in MT-4 cells.

Molecules are shown by their SMILES. Where a name gives a salt, the structure may show the parent alone.

Turning to `O=S(=O)(O)OC[C@H]1O[C@@H]2O[C@H]3[C@H](OS(=O)(=O)O)[C@@H](OCc4ccccc4)[C@@H](O[C@H]4[C@H](OS(=O)(=O)O)[C@@H](OCc5ccccc5)[C@@H](O[C@H]5[C@H](OS(=O)(=O)O)[C@@H](OCc6ccccc6)[C@@H](O[C@H]6[C@H](OS(=O)(=O)O)[C@@H](OCc7ccccc7)[C@@H](O[C@H]7[C@H](OS(=O)(=O)O)[C@@H](OCc8ccccc8)[C@@H](O[C@H]8[C@H](OS(=O)(=O)O)[C@@H](OCc9ccccc9)[C@@H](O[C@H]1[C@H](OS(=O)(=O)O)[C@H]2OCc1ccccc1)O[C@@H]8COS(=O)(=O)O)O[C@@H]7COS(=O)(=O)O)O[C@@H]6COS(=O)(=O)O)O[C@@H]5COS(=O)(=O)O)O[C@@H]4COS(=O)(=O)O)O[C@@H]3COS(=O)(=O)O` [Example 1, sodium salt of heptakis(2-O-benzyl)-β-cyclodextrin polysulfate], the IC100 is 0.98 µg/mL.
Regarding `O=S(=O)(O)OC[C@H]1O[C@@H]2O[C@H]3[C@H](OS(=O)(=O)O)[C@@H](OCc4ccc(F)cc4)[C@@H](O[C@H]4[C@H](OS(=O)(=O)O)[C@@H](OCc5ccc(F)cc5)[C@@H](O[C@H]5[C@H](OS(=O)(=O)O)[C@@H](OCc6ccc(F)cc6)[C@@H](O[C@H]6[C@H](OS(=O)(=O)O)[C@@H](OCc7ccc(F)cc7)[C@@H](O[C@H]7[C@H](OS(=O)(=O)O)[C@@H](OCc8ccc(F)cc8)[C@@H](O[C@H]8[C@H](OS(=O)(=O)O)[C@@H](OCc9ccc(F)cc9)[C@@H](O[C@H]1[C@H](OS(=O)(=O)O)[C@H]2OCc1ccc(F)cc1)O[C@@H]8COS(=O)(=O)O)O[C@@H]7COS(=O)(=O)O)O[C@@H]6COS(=O)(=O)O)O[C@@H]5COS(=O)(=O)O)O[C@@H]4COS(=O)(=O)O)O[C@@H]3COS(=O)(=O)O` [Example 6], the IC100 worked out at 3.9 µg/mL.

The values are drawn from patent publication US5385891A, “Polysulfate of β-cyclodextrin derivative and process for preparing the same” (Tanabe Seiyaku Co., Ltd., priority 1991, dated 1995).
